Assay results published in patent US11186589B2, “Cyanoindoline derivatives as NIK inhibitors” (Janssen Pharmaceutica NV, priority 2016, dated 2021).
Read-outs that look alike come from different tables or passages of the source.

How the values were obtained:
NIK/MAP3K14 = NIK/MAP3K14 (Homo sapiens (Human), UniProt Q99558); test: Inhibition of auto-phosphorylation of recombinant human NF-kappaB-inducing kinase (NIK/MAP3K14) activity (AlphaScreen); assay type: biochemical; conditions: averaged values over all measurements on all batches, 25 microM ATP
Chain of NIK/MAP3K14 (Q99558 whole entry): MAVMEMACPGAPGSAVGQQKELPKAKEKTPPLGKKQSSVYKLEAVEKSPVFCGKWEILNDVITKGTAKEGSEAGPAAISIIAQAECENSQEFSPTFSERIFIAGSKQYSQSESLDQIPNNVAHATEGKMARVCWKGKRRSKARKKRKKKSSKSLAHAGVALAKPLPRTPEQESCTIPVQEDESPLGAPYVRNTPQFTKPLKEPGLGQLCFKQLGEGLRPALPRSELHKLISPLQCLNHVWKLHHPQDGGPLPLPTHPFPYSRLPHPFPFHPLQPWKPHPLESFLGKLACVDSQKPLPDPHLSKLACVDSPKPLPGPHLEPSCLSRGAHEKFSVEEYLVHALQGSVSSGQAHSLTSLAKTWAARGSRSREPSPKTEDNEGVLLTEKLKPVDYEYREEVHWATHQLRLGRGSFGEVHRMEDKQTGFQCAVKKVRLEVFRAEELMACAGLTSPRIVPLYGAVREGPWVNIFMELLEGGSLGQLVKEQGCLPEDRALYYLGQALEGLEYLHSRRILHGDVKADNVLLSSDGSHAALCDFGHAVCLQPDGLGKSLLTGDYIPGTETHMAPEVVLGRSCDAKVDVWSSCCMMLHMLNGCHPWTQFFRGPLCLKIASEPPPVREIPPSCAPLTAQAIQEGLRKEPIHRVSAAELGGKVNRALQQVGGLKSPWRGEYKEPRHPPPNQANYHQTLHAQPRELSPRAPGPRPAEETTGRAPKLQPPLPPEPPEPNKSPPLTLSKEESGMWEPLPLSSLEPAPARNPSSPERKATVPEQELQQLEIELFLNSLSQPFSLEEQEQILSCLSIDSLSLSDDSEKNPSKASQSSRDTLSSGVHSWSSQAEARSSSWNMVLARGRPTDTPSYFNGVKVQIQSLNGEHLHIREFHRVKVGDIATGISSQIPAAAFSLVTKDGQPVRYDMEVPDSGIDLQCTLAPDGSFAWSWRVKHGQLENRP
Protocol: Inhibition of Auto-Phosphorylation of Recombinant Human NF-kappaB-Inducing Kinase ([…]) Activity (AlphaScreen®)
NIK/MAP3K14 auto-phosphorylation activity was measured using the AlphaScreen® (αscreen) format (Perkin Elmer). All compounds tested were dissolved in dimethyl sulfoxide (DMSO) and further dilutions were made in assay buffer. Final DMSO concentration was […] in assays. Assay buffer was 50 mM Tris pH 7.5 containing 1 mM EGTA (ethylene glycol tetraacetic acid), 1 mM DTT (dithiothreitol), 0.1 mM Na3VO4, 5 mM MgCl2, 0.01% Tween® 20. Assays were carried out in 384 well Alphaplates (Perkin Elmer). Incubations consisted of compound, 25 microM Adenosine-5′-triphosphate (ATP), and 0.2 nM NIK/MAP3K14. Incubations were initiated by addition of GST-tagged NIK/MAP3K14 enzyme, carried out for 1 h at 25° C. and terminated by addition of stop buffer containing anti-phospho-[…] Ser176/180 antibody. Protein A Acceptor and Glutathione-Donor beads were added before reading using an EnVision® Multilabel Plate Reader (Perkin Elmer). Signal obtained in the wells containing blank samples was subtracted from all other wells and IC50's were determined by fitting a sigmoidal curve to % inhibition of control versus Log10 compound concentration.

[1] = test system: P-IKKα levels in L363 cells; test: Effect of compounds on P-IKKα levels in L363 (NIK translocated multiple myeloma) cells; assay type: cell-based, human; conditions: 2 hr treatment, averaged values, read-out: Inhibition of pIKKα_L-363 (IC50 (nM))
Protocol: Effect of Compounds on P-IKKα Levels in L363 (NIK Translocated Multiple Myeloma) Cells
All compounds tested were dissolved in DMSO and further dilutions were made in culture medium. Final DMSO concentration was 1% (v/v) in cell assays. The human L363 cells (ATCC) were cultured in RPMI 1640 medium supplemented with GlutaMax and 10% fetal calf serum (PAA). Cells were routinely maintained at densities of 0.2×10^6 cells per ml—1×10^6 cells per ml at 37° C. in a humidified 5% CO2 atmosphere. Cells were passaged twice a week splitting back to obtain the low density. Cells were seeded in 96 well plates (Nunc 167008) at 2×10^6 per ml media in a volume of 75 μl per well plus 25 μl 1 μg/ml recombinant human B-cell activating factor (BAFF/BLyS/TNFSF13B). Seeded cells were incubated at 37° C. in a humidified 5% CO2 atmosphere for 24 hr. Drugs and/or solvents were added (20 μl) to a final volume of 120 μl. Following 2 hr treatment plates were removed from the incubator and cell lysis was achieved by the addition of 30 μl 5× lysis buffer followed by shaking on a plate shaker at 4° C. for 10 min. At the end of this incubation lysed cells were centrifuged at 800×g for 20 min at 4° C. and the lysate was assessed for P-IKKα levels by sandwich immuno-assay carried out in anti-rabbit antibody coated Mesoscale plates. Within an experiment, the results for each treatment were the mean of 2 replicate wells. For initial screening purposes, compounds were tested using an 8 point dilution curve (serial 1:3 dilutions). For each experiment, controls (containing MG132 and BAFF but no test drug) and a blank incubation (containing MG132 and BAFF and 10 μM ADS125117, a test concentration known to give full inhibition) were run in parallel. The blank incubation value was subtracted from all control and sample values. To determine the IC50 a sigmoidal curve was fitted to the plot of % inhibition of control P-IKKα levels versus Log10 compound concentration.

JJN-3 cells = test: Antiproliferative activity on JJN-3 (NIK translocated) multiple myeloma cells (CellTiter-Glo); assay type: cell-based, human; conditions: JJN-3 (NIK translocated) cells, 96 hr treatment, averaged values, read-out: JJN-3 Proliferation inhibition (IC50 (nM))
Protocol: (§1) Determination of Antiproliferative Activity on JJN-3 (NIK Translocated) and KMS12-BM (NIK WT) Multiple Myeloma Cells
(§2) All compounds tested were dissolved in DMSO and further dilutions were made in culture medium. Final DMSO concentration was 0.3% (v/v) in cell proliferation assays. Viability was assessed using CellTiter-Glo cell viability assay kit (Promega). The human JJN-3 and KMS12-BM cells (DSMZ) were cultured in RPMI 1640 medium supplemented with 2 mM L-glutamine, and 10% fetal calf serum (PAA). Cells were routinely kept as suspension cells at 37° C. in a humidified 5% CO2 atmosphere. Cells were passaged at a seeding density of 0.2×10^6/ml twice a week. Cells were seeded in black tissue culture treated 96-well plates (Perkin Elmer). Densities used for plating ranged from 15000 (JJN3) to 20000 (KMS12BM) cells per well in a total volume of […]. Drugs and/or solvents were added (15 μl) to a final volume of 150 μl. Following 96 hr of treatment, plates were removed from the incubator and allowed to equilibrate to room temperature for approx 10 min. 75 μl CellTiter-Glo reagent was added to each well that was then covered (Perkin Elmer Topseal) and shaken on plate shaker for 10 min. Luminescence was measured on a HTS Topcount (Perkin Elmer). Within an experiment, the results for each treatment were the mean of 2 replicate wells. For initial screening purposes, compounds were tested using a 9 point dilution curve (serial 1:3 dilutions). For each experiment, controls (containing no drug) and a blank incubation (containing cells read at the time of compound addition) were run in parallel. The blank value was subtracted from all control and sample values. For each sample, the mean value for cell growth (in relative light units) was expressed as a percentage of the mean value for cell growth of the control.

KMS12-BM cells = test: Antiproliferative activity on KMS12-BM (NIK WT) multiple myeloma cells (CellTiter-Glo); assay type: cell-based, human; conditions: Homo sapiens, KMS-12-BM, 96 h, 96 hr treatment, averaged values, read-out: KMS-12 Proliferation inhibition (IC50 (nM))
Protocol: as §1, §2

SMILES	IC50 (NIK/MAP3K14) [nM]	IC50 ([1]; Homo sapiens, L-363, 2 h) [nM]	IC50 (JJN-3 cells; Homo sapiens, JJN-3, 96 h) [nM]	IC50 (KMS12-BM cells) [nM]	IC50 [1] [nM]	IC50 (JJN-3 cells) [nM]
COc1cc2c(cc1Nc1nccc(-c3cc(C#N)c4c(c3)[C@@](C)(CO)CN4)n1)CCN(C)CC2 [Compound 24]	3	~74	~214	~288		
CNC(=O)CCn1ccc2c(Nc3nccc(-c4cc(C#N)c5c(c4)C(C)(C)CN5)n3)cc(Cl)cc21 [Compound 1c]	30.2	23	26	1380		
CNC(=O)c1cc(Nc2nccc(-c3cc(C#N)c4c(c3)[C@@](C)(CO)CN4)n2)c(=O)n2c1CCC2 [Compound 44]	4.5	35	> 10000	> 10000		
CC(C)Oc1nc2c(cc1Nc1nccc(-c3cc(C#N)c4c(c3)[C@@](C)(CO)CN4)n1)CN(C)CC2 [Compound 50]	3.4	56	240	3980		
Cn1c2c(cc(Nc3nccc(-c4cc(C#N)c5c(c4)[C@@](C)(CO)CN5)n3)c1=O)COCC2 [Compound 48]	1.6	31	~2340	> 10000		
CN1CCn2nc(Nc3nccc(-c4cc(C#N)c5c(c4)[C@@](C)(CO)CN5)n3)cc2C1=O [Compound 13b]	2	29	457	~1860		
CN1CCc2ncc(Nc3ncc(F)c(-c4cc(C#N)c5c(c4)[C@@](C)(CO)CN5)n3)cc2C1 [Compound 54]		2	~7	~9		
CC1CCCn2ncc(Nc3nccc(-c4cc(C#N)c5c(c4)[C@@](C)(CO)CN5)n3)c2O1 (single isomer, unassigned) [Compound 29b]	3.9			> 10000	6	85
COc1nc2c(cc1Nc1nccc(-c3cc(C#N)c4c(c3)[C@@](C)(CO)CN4)n1)CCN(C)C2 [Compound 53]		1	12	~468		
C[C@]1(CO)CNc2c(C#N)cc(-c3ccnc(Nc4cnn5c4OCCC5)n3)cc21 [Compound 14b]	2	6	155	3980		
COc1cc2[nH]ccc2cc1Nc1nccc(-c2cc(C#N)c3c(c2)C(C)(CO)CN3)n1 (stereo not shown) [Compound 13c]	6.2	3				
COc1nc2c(cc1Nc1nccc(-c3cc(C#N)c4c(c3)[C@@](C)(CO)CN4)n1)COCC2 [Compound 25]	1.7	10	174	> 10000		
CC(C)Oc1nc2c(cc1Nc1nccc(-c3cc(C#N)c4c(c3)[C@@](C)(CO)CN4)n1)CN(C1CC1)CC2 [Compound 49]	34.7	115				
COC[C@@H]1Cn2ncc(Nc3nccc(-c4cc(C#N)c5c(c4)[C@@](C)(CO)CN5)n3)c2O1 [Compound 19b]	11.7	19	316	~5500		
COCCCc1nc2c(cc1Nc1nccc(-c3cc(C#N)c4c(c3)[C@@](C)(CO)CN4)n1)COCC2 [Compound 33]	8.1	17	776	> 10000		
C[C@]1(CO)CNc2c(C#N)cc(-c3ccnc(Nc4cnn5c4COCC5)n3)cc21 [Compound 12b]	1.5	4	251	~549		
